Experimental data as given in patent US8759500B2, “Crystalline forms of a macrolide, and uses therefor” (Cempra Pharmaceuticals, Inc., priority 2010, dated 2014).
Values after ≈ are worked out from the molar mass of the structure shown.

Legend:
[1] = Stability of Form I and Form II under various storage conditions; assay type: physicochemical
Excerpt: In each case, the test material was first placed in Primary Packaging Material (LLDPE bag within a HMHDPE/LDPE/LDPE blend bag, and then heat sealed). The Primary Packaging Material was placed in Secondary Packaging Material (HDPE drum). All other impurities were less than 1% at each time point.

[2] = Aqueous solubility in water at indicated pH; conditions: water at adjusted pH, 26 °C, thermodynamic from solid
[3] = Pharmacokinetic comparison of forms by dosing vehicle
[4] = Oral pharmacokinetics in Balb/c mice, single dose 20 or 100 mg/kg; conditions: for AUCextrap: mean plasma
Protocol: The doses were prepared as 2.0 mg/mL or 10.0 mg/mL in a vehicle of 0.5% (w/v) carboxymethyl cellulose in water and a dose volume of 10 mL/kg b.w. Blood samples were collected at various time points during the next 6 h post dose.

[5] = female, Balb/c, mouse, plasma, po, 20 mg/kg

Q: With CC[C@H]1OC(=O)[C@@](C)(F)C(=O)[C@H](C)[C@@H](O[C@@H]2O[C@H](C)C[C@H](N(C)C)[C@H]2O)[C@](C)(OC)C[C@@H](C)C(=O)[C@H](C)[C@H]2N(CCCCn3cc(-c4cccc(N)c4)nn3)C(=O)O[C@]12C [Form II, solithromycin] as the compound, how does the Assay (on hydrous basis) ([1]; 2-8° C., 3 Month) read?
A: 93.4%

Q: What about the “Chromatographic Purity” value ([1]; 2-8° C., 3 Month) of the same compound?
A: 96.0

Q: What about the Water ([1]; 2-8° C., 3 Month) of the same compound?
A: 1.24%

Q: And the Assay (on hydrous basis) ([1]; 2-8° C., 6 Month)?
A: 93.6%

Q: What about the “Chromatographic Purity” value ([1]; 2-8° C., 6 Month) of the same compound?
A: 96.8

Q: And the Water ([1]; 2-8° C., 6 Month)?
A: 1.39%

Q: And the 3-Ethynylaniline ([1]; 2-8° C., 9 Month)?
A: 0.01%

Q: And the Assay (on hydrous basis) ([1]; 2-8° C., 9 Month)?
A: 93.3%

Q: What about the “Chromatographic Purity” value ([1]; 2-8° C., 9 Month) of the same compound?
A: 96.4

Q: What about the Water ([1]; 2-8° C., 9 Month) of the same compound?
A: 1.38%

Q: What about the 3-Ethynylaniline ([1]; 2-8° C., 12 Month) of the same compound?
A: 0.12%

Q: And the Assay (on hydrous basis) ([1]; 2-8° C., 12 Month)?
A: 93%

Q: And the “Chromatographic Purity” value ([1]; 2-8° C., 12 Month)?
A: 96.8

Q: What about the Water ([1]; 2-8° C., 12 Month) of the same compound?
A: 1.37%

Q: What about the Assay (on hydrous basis) ([1]; 2-8° C., Initial) of the same compound?
A: 93.9%

Q: What about the “Chromatographic Purity” value ([1]; 2-8° C., Initial) of the same compound?
A: 97.0

Q: What about the Water ([1]; 2-8° C., Initial) of the same compound?
A: 1.01%

Q: What about the “Assay (on hydrous basis)” value ([1]; 25° C./60% RH, 3 Month) of the same compound?
A: 93.6%

Q: And the “Chromatographic Purity” value ([1]; 25° C./60% RH, 3 Month)?
A: 96.0%

Q: What about the Water ([1]; 25° C./60% RH, 3 Month) of the same compound?
A: 1.16%

Q: What about the “Assay (on hydrous basis)” value ([1]; 25° C./60% RH, 6 Month) of the same compound?
A: 93.7%

Q: And the “Chromatographic Purity” value ([1]; 25° C./60% RH, 6 Month)?
A: 96.7%

Q: And the Water ([1]; 25° C./60% RH, 6 Month)?
A: 1.42%

Q: What about the 3-Ethynylaniline ([1]; 25° C./60% RH, 9 Month) of the same compound?
A: 0.04%

Q: And the “Assay (on hydrous basis)” value ([1]; 25° C./60% RH, 9 Month)?
A: 93.2%

Q: What about the “Chromatographic Purity” value ([1]; 25° C./60% RH, 9 Month) of the same compound?
A: 96.2%

Q: What about the Water ([1]; 25° C./60% RH, 9 Month) of the same compound?
A: 1.45%

Q: And the 3-Ethynylaniline ([1]; 25° C./60% RH, 12 Month)?
A: 0.11%

Q: And the “Assay (on hydrous basis)” value ([1]; 25° C./60% RH, 12 Month)?
A: 93.0%

Q: And the “Chromatographic Purity” value ([1]; 25° C./60% RH, 12 Month)?
A: 96.1%

Q: And the Water ([1]; 25° C./60% RH, 12 Month)?
A: 1.48%

Q: What about the “Assay (on hydrous basis)” value ([1]; 25° C./60% RH, Initial) of the same compound?
A: 93.9%

Q: What about the “Chromatographic Purity” value ([1]; 25° C./60% RH, Initial) of the same compound?
A: 97.0%

Q: What about the Water ([1]; 25° C./60% RH, Initial) of the same compound?
A: 1.01%

Q: What about the “Assay (on hydrous basis)” value ([1]; 40° C./75% RH, 3 Month) of the same compound?
A: 93.0%

Q: And the “Chromatographic Purity” value ([1]; 40° C./75% RH, 3 Month)?
A: 95.9%

Q: What about the Water ([1]; 40° C./75% RH, 3 Month) of the same compound?
A: 1.24%

Q: What about the “Assay (on hydrous basis)” value ([1]; 40° C./75% RH, 6 Month) of the same compound?
A: 93.1%

Q: And the “Chromatographic Purity” value ([1]; 40° C./75% RH, 6 Month)?
A: 96.5%

Q: What about the Water ([1]; 40° C./75% RH, 6 Month) of the same compound?
A: 1.62%

Q: And the 3-Ethynylaniline ([1]; 40° C./75% RH, 9 Month)?
A: 0.02%

Q: And the “Assay (on hydrous basis)” value ([1]; 40° C./75% RH, 9 Month)?
A: 92.5%

Q: And the “Chromatographic Purity” value ([1]; 40° C./75% RH, 9 Month)?
A: 96.2%

Q: And the Water ([1]; 40° C./75% RH, 9 Month)?
A: 1.51%

Q: And the 3-Ethynylaniline ([1]; 40° C./75% RH, 12 Month)?
A: 0.05%

Q: And the “Assay (on hydrous basis)” value ([1]; 40° C./75% RH, 12 Month)?
A: 92.3%

Q: And the “Chromatographic Purity” value ([1]; 40° C./75% RH, 12 Month)?
A: 97.1%

Q: What about the Water ([1]; 40° C./75% RH, 12 Month) of the same compound?
A: 1.56%

Q: And the “Assay (on hydrous basis)” value ([1]; 40° C./75% RH, Initial)?
A: 93.9%

Q: And the “Chromatographic Purity” value ([1]; 40° C./75% RH, Initial)?
A: 97.0%

Q: And the Water ([1]; 40° C./75% RH, Initial)?
A: 1.01%

Q: What about the “change in color of the test material” value ([1]; during the entire study, all storage conditions) of the same compound?
A: no observed change in color

Q: And the solubility at 6 h ([2]; pH 1.2, simulated gastric fluid)?
A: 3640 µg/mL (≈ 4310 µM)

Q: And the solubility at 6 h ([2]; pH 4, aqueous buffer)?
A: 361 µg/mL (≈ 427 µM)

Q: What about the solubility at 6 h ([2]; pH 7.4, aqueous buffer) of the same compound?
A: 305 µg/mL (≈ 361 µM)

Q: What about the solubility at 6 h ([2]; pH 9.2, aqueous buffer) of the same compound?
A: 331 µg/mL (≈ 392 µM)

Q: And the “difference in measured pharmacokinetic parameters, including Cmax, Tmax, and AUC, among Form I and Form II” value ([3]; dosed in a vehicle in which the compound is present as a solid)?
A: no statistical difference

Q: What about the “difference in measured pharmacokinetic parameters, including Cmax, Tmax, and AUC, among Form I and Form II” value ([3]; dosed in a vehicle in which the compound is well solubilized) of the same compound?
A: no observed difference

Q: What about the AUCextrap ([4]; Female Balb/c mouse, 20 mg/kg oral, listed as CEM-101 Form II, 20 mg/kg) of the same compound?
A: 12%

Q: What about the AUCextrap ([4]; Male Balb/c mouse, 20 mg/kg oral, listed as CEM-101 Form II, 20 mg/kg) of the same compound?
A: 42%

Q: What about the AUCextrap ([4]; Male Balb/c mouse, 100 mg/kg oral) of the same compound?
A: 33%

Q: What about the AUC(0-inf) [4, 5] of the same compound?
A: 36000 ng·h/mL

Q: What about the AUC(0-t) [4, 5] of the same compound?
A: 31600 ng·h/mL

Q: What about the Cmax [4, 5] of the same compound?
A: 8800 ng/mL
